{
  "source": "patent US20230181484A1",
  "about": "“Uses and Formulations of Cannabinoids” (priority 2020, published 2023)",
  "key": {"[1]": {"experiment": "systemic exposure after i.p. and oral application of CBD in mice (Deiana et al. 2012)", "format": "in vivo", "details": "20 mg/kg, assuming dose-proportional plasma concentrations", "description": "A comparative investigation for systemic exposure after i.p. and oral application of CBD in mice and rats has shown that 120 mg/kg as a single dose leads to a maximum plasma concentration of 14,000 ng/ml in mice (S. Deiana et al. (2012). Plasma and brain pharmacokinetic profile of cannabidiol (CBD), cannabidivarine (CBDV), Delta(9)-tetrahydrocannabivarin (THCV) and cannabigerol (CBG) in rats and mice following oral and intraperitoneal administration and CBD action on obsessive-compulsive behaviour. Psychopharmacology (Bed) 219(3): 859-73)."}, "[2]": {"details": "decimal logarithm of n-octanol/water partition coefficient; cited from earlier work"}, "[3]": {"details": "mice, 120 mg/kg single dose; cited from earlier work"}, "[4]": {"tested_on": "IL-6 secretion", "details": "cellular models, majority of cases; cited from earlier work"}, "[5]": {"tested_on": "LPS-induced acute lung injury", "details": "cited from earlier work"}, "[6]": {"tested_on": "LPS-induced acute lung injury", "details": "mice, 20 mg/kg, 6 h after LPS; cited from earlier work"}, "[7]": {"tested_on": "human mononuclear cells", "details": "nanomolar or micromolar concentrations; cited from earlier work"}, "[8]": {"tested_on": "human neutrophils", "details": "cited from earlier work"}, "[9]": {"tested_on": "CD83", "details": "cited from earlier work"}, "[10]": {"tested_on": "microglial cells", "details": "1-16 μmol/l; cited from earlier work"}, "[11]": {"tested_on": "chemically induced acute hepatitis", "details": "mice, 25 mg/kg; cited from earlier work"}, "[12]": {"tested_on": "activated memory T cell line", "details": "1-5 μmol/l, cited from earlier work"}, "[13]": {"tested_on": "ischemia-reperfusion-induced kidney injury", "details": "mice, 10 mg/kg after induced kidney injury; cited from earlier work"}, "[14]": {"tested_on": "NK, NKT, T and B cells", "details": "healthy rats, cited from earlier work"}, "[15]": {"biological_target": "T1, IL-6 receptor (Homo sapiens, UniProt P08887)", "T1 construct": "host or cells: patients (in vivo)", "T1 sequence (P08887 20-468)": "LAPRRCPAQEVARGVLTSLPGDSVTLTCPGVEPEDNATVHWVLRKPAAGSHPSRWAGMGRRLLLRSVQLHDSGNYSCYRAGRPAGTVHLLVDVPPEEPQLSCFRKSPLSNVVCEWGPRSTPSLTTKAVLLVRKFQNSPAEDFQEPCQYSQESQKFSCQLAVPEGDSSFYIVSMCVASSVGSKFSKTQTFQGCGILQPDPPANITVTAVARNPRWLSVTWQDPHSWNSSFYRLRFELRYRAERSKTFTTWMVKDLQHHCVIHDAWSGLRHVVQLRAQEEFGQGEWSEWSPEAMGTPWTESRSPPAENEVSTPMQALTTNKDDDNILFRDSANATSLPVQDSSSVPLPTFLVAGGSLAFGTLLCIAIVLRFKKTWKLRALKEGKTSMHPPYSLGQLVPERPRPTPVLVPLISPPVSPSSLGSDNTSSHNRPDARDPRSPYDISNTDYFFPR", "details": "patients with severe SARS-CoV-2 pneumonia, preliminary clinical data; cited from earlier work"}, "[16]": {"details": "mice, 0.3-80 mg/kg i.p. 60 min before LPS"}},
  "note": "Read-outs that look alike come from different tables or passages of the source.",
  "data": [
    {"compound": "C=C(C)[C@@H]1CCC(C)=C[C@H]1c1c(O)cc(CCCCC)cc1O", "note": "[CBD, 2-[(1R,6R)-3-methyl-6-(1-methylethenyl)-2-cyclohexen-1-yl]-5-pentyl-1,3-benzenediol]", "values": [
      {"measurement": "target peak exposure", "setting": "[1]", "result": "2,300 ng/ml"},
      {"measurement": "log P", "setting": "[2]", "result": "about 6.1"},
      {"measurement": "maximum plasma concentration", "setting": "[3]", "result": "14,000 ng/ml"},
      {"measurement": "effective concentration, suppressive effect on IL-6 secretion", "setting": "[4]", "result": "~5", "unit": "µM"},
      {"measurement": "number of leukocytes including macrophages and neutrophils in bronchoalveolar lavage fluid", "setting": "[5]; mice, 20 mg/kg, after LPS-induced lung inflammation", "result": "decreases"},
      {"measurement": "myeloperoxidase activity", "setting": "[5]; [16]", "result": "significantly decreased"},
      {"measurement": "pro-inflammatory cytokine production including TNF-α and IL-6", "setting": "[5]; [16]", "result": "significantly decreased"},
      {"measurement": "total leukocytes migration", "setting": "[5]; [16]", "result": "significantly decreased"},
      {"measurement": "vascular permeability", "setting": "[5]; [16]", "result": "significantly decreased"},
      {"measurement": "dose at which effects reached a nearly maximum extent", "setting": "[5]; prophylactic application, i.p.", "result": 20, "unit": "mg/kg"},
      {"measurement": "leukocyte migration (neutrophil, macrophages and lymphocytes) into the lungs", "setting": "[6]", "result": "decreased"},
      {"measurement": "mechanical lung function", "setting": "[6]", "result": "improved"},
      {"measurement": "myeloperoxidase activity in the lung tissue", "setting": "[6]", "result": "decreased"},
      {"measurement": "production of proinflammatory cytokines/chemokines", "setting": "[6]", "result": "reduced"},
      {"measurement": "vascular permeability", "setting": "[6]", "result": "reduced"},
      {"measurement": "release of pro-inflammatory cytokines", "setting": "[7]", "result": "suppressed"},
      {"measurement": "migration of human neutrophils", "setting": "[8]", "result": "inhibits"},
      {"measurement": "CD83 dendritic cell activation marker", "setting": "[9]; dendritic cells derived from healthy individuals", "result": "not"},
      {"measurement": "CD83 dendritic cell activation marker", "setting": "[9]; dendritic cells derived from individuals with HIV infection", "result": "suppresses"},
      {"measurement": "apoptosis in microglial cells", "setting": "[10]", "result": "induces apoptosis"},
      {"measurement": "expression of MDSCs", "setting": "[11]", "result": "induces"},
      {"measurement": "pro-inflammatory cytokines such as IL-2, TNF-α and IL-6", "setting": "[11]", "result": "reduction"},
      {"measurement": "IL-6 production and secretion", "setting": "[12]", "result": "decreased"},
      {"measurement": "production of IL-10", "setting": "[12]", "result": "increased"},
      {"measurement": "autoantigen-specific Th17 cell phenotype (IL-17)", "setting": "[12]; dose-dependently", "result": "reduced"},
      {"measurement": "decreased Treg17 and increased Th17 levels", "setting": "[13]", "result": "reversed"},
      {"measurement": "effect on induced kidney injury", "setting": "[13]", "result": "renoprotective"},
      {"measurement": "numbers of NK cells and NKT cells", "setting": "[14]; 2.5 mg/kg per day", "result": "increased"},
      {"measurement": "numbers of NK cells and NKT cells", "setting": "[14]; 5 mg/kg per day", "result": "not affected"},
      {"measurement": "number of T cells including T helper cells and cytotoxic T cells and of B cells", "setting": "[14]; daily 5 mg/kg", "result": "significantly reduced"}
    ]},
    {"compound": "tocilizumab: humanized monoclonal antibody against the IL-6 receptor", "values": [
      {"measurement": "clinical effect of IL-6 blockade therapy", "setting": "[15]", "result": "beneficial effects"}
    ]}
  ]
}
